These results are taken from patent USRE41784E1, “Adhesive material” (Sony Corporation, priority 2000, dated 2010).

Data set [1] relates to skin of rabbits. Put plainly: Draize test (skin irritation, PII value). The following applies: for PII value: preferred acrylic/methacrylic acid esters; for PH value: starting material (component) of the adhesive materials.
From the text: (§1) The PII, or skin irritation, value is a skin toxicity index measured in accordance with the method defined by the Consumer Product Safety Commission of the USA (Draize Method; The Consumer Product Safely Commission of the USA, the Code of Federal Regulations, Title 16, Section 1500.41). A lower index corresponds to less pronounced skin irritation.
(§2) Hair was removed with the aid of an electric hair clipper from the lumbar regions of six healthy rabbits (body weight: 2.0-4.0 kg) to expose the skin over an area of about 10 cm^2. The skin on the right side of the vertebra was incised with a surgical knife over an area of 2.5 cm^2, creating a lesion. The skin on the left side of the vertebra was left intact, and pads obtained by applying 0.5 mL samples were affixed at two locations on the right and left of the vertebra. The pads were peeled off 24 and 72 hours following affixation, redness and swelling were visually observed, the results were graded using a five-point system (levels 0 to 4), a gross mean was obtained using the average values for each rabbit, and the gross mean value was termed the PII value.
Data set [2] relates to mutant strain (his−) of Salmonella requiring histidine. The settings on record: starting material (component) of the adhesive materials. The method, then:
The Ames test referred to herein is also known as a mutagenicity test, and is one of tests in which bacteria are used to screen chemical substances for carcinogenicity or mutagenicity. […] This mutation is the result of DNA damage, and carcinogenicity is believed to become more pronounced with increased ease of mutation. Consequently, an adhesive material having high biological safety must give a negative result of the Ames test.
This test was performed using direct reverse mutation of a mutant strain (his−) of Salmonella requiring histidine to a non-requiring strain (his+) under the action of a test substance. A specific test method involved preparing histidine-free media to which a metabolically active substance (S9) bad been added, and histidine-free media devoid of the metabolically active substance (S9). The test substance was admixed into these media, a strain (his−) requiring histidine was cultured, and the bacterial colony count of a medium containing the test substance was compared with the bacterial colony count of a medium devoid of the substance. If the first value was greater than the second, the test result was concluded to be positive, otherwise the result was concluded to be negative.

Data set [3] deals with skin of rabbits. The following applies: rabbit, in vivo.
From the text: as §1, §2

Like-named read-outs stand apart in the source and are kept apart here.

In turn, 1,3-butanediol methacrylate registered a PII value in the data set with skin of rabbits [1] of 0.0.

In the data set with skin of rabbits [1], `C=C(C)C(=O)OCC(C)O` (centres unmarked) [2-hydroxypropyl methacrylate] yielded a PII value of 0.0.

Take `C=C(C)C(=O)OCC(C)(C)COC(=O)C(=C)C` [Neopentyl glycol dimethacrylate]: the Mutagenicity result in data set [2] is “negative”. In addition, in the data set with skin of rabbits [1], the PII value was found to be 0.0 and the PH value was 0.0.

On to `C=CC(=O)OCCOc1ccccc1` [Phenoxyethyl acrylate], for which the PH value with skin of rabbits [1] came out at 1.5.

As to `C=C(C)C(=O)OCCO` [hydroxyethyl methacrylate], in the data set on skin of rabbits [1], the PII value is reported as 0.0.

Turning to Polypropylene glycol diacrylate, the Mutagenicity entry in data set [2] is given as “negative”. In the data set on skin of rabbits [3], the PH value is reported as 0.0 and the PII value came out at 0.0.

ditrimethylol propane tetraacrylate: the PII value in the data set with skin of rabbits [1] is given as 0.0.
